Patent US9597347B2, “Compositions for treating obesity and insulin resistance disorders” (President and Fellows of Harvard College, priority 2003, dated 2017)

How the values were obtained:
C. elegans worms = test: Nile Red fat staining in C. elegans fed RNAi bacteria; assay type: in vivo; details: RNA inactivation of TOC1.8 (AMPK homolog) or F41E7.3 (COT homolog)
Description: The role of Sir2.1 in fat metabolism was shown in C. elegans worms in which Sir2.1 was RNA inactivated. Young adult worms were grown to adulthood in the presence of bacteria that carry RNAi vector alone or vector encoding Sir2.1 RNAi (R11A8.4), as described below. These worms were grown in the presence or absence of resveratrol, and stained with Nile-Red as described below.
We have examined the C. elegans database and found two gene products that are highly related to mammalian AMPK, TOC1.8 and Par2.3; five genes encoding homologs of CPT-1 and one gene encoding a homolog of COT. C. elegans worms were incubated with bacteria carrying RNAi vector alone, or interfering RNA against TOC1.8 or F41E7.3, a C. elegans homologue of COT in the presence or absence of AICAR. Fat accumulation was visualized with Nile-Red, as described below. […] Thus, AICAR/AMPK signaling to fatty acid oxidation is conserved in worms and mammalian cells.
The effect of TOC1.8 and COT inactivation was then investigated in C. elegans incubated with resveratrol. C. elegans worms were incubated with bacteria carrying RNAi vector alone, or a vector encoding TOC1.8 or COT interfering RNA in the presence or absence of resveratrol. Fat accumulation was visualized with Nile-Red, as described below.
RNAi plates were seeded with HTT5 E. coli carrying either the L4440 RNAi vector control or the specific RNAi clones T01C8.1, AMPK; R11A8.4, sir-2.1; or F41E7.6 COT in the presence or absence of 100 μM resveratrol. Young adults were transferred to plates containing the appropriate vector, Nile Red stain and drug then maintained at 25° C. Nile Red staining was assessed 24 hours after resveratrol treatment by UV microscopy.
HT115 E. Coli carrying the RNAi vector, L4440, were used for maintenance feeding. Bacteria containing experimental RNAi clones were cultured in 10 ml Luria Broth media containing 50 μg/ml ampicillin for 18 hours. 350 μl of each culture was spotted to a 60 mm dish containing NGM agar, 6 mM IPTG and 25 μg/ml carbenicillin. After overnight incubation (at room temp), Nile Red was added on top of each dish to a final concentration of 0.05 μg/ml along with the experimental compounds indicated in the figure legends. Nile Red staining was assessed after 24 hrs by UV microscopy. For each batch of RNAi clones tested, L4440 (vector alone) was included. […] All phenotypes were confirmed by at least three additional rounds of testing.

[1] = system: phosphorylation of AMPK on threonine 172 and of ACC on serine 79; test: Western analysis of AMPK and ACC phosphorylation in CHO-HIR cells; assay type: cell-based; details: resveratrol 12.5, 25 or 50 μM; AICAR 500 μM (positive control); 30 minutes; serum-free overnight
Description: CHO-HIR mammalian cells were washed in PBS and incubated overnight in serum-free DMEM before treatment with 500 μM AICAR (positive control) or 12.5 μM, 25 μM or 50 μM resveratrol. Cells were harvested after 30 minutes and lysates were immediately boiled in SDS and subjected to Western analysis with site-specific antibodies. Phosphorylation of AMPK at Thr172 indicates activation of the kinase. Active AMPK phosphorylates and inactivates ACC at serine 79.
CHO cells were also treated with 500 μM AICAR (positive control), DMSO, 100 nM, 500 nM, 2.5 μM, 12.5 μM, 25 μM, or 50 μM resveratrol and subject to Western Blot analysis as described above. Western blots were stripped and re-probed for phosphorylated (active) AMPK, total AMPK, phosphorylated acetyl CoA carboxylase (ACC), which is the downstream target of AMPK, and tubulin, which served as a loading control.

H4IIEC3 cells = test: Oxidation of 14C-palmitate in H4IIEC3 cells; assay type: cell-based; details: resveratrol 10 μM in 1% DMSO, AICAR 500 μM in H2O, metformin 1 mM in H2O; 4 hours; vehicle = 1
Description: (§1) Oxidation of 14C-palmitate to acid-soluble products (modified from H4IIEC3 cells [Witters, L. A. and B. E. Kemp, Insulin activation of acetyl-CoA carboxylase accompanied by inhibition of the 5′-AMP-activated protein kinase. J Biol Chem, 1992. 267(5): p. 2864-7] and HepG2 cells were maintained as described above. Cells (10^6 cells/T25) were seeded in a T25 flask one day prior to the experiment. On the day of the experiment cells were washed with assay buffer (114 mM NaCl, 4.7 mM KCL, 1.2 mM KH2PO4, 1.2 mM MgSO4, 11 mM glucose) before labeling with 14C-palmitate (0.4 μCi/ml) in presence of vehicle, or resveratrol (10 μM), or AICAR (500 μM) for 4 hours.
(§2) At the end of incubation, the cap of each T25 flask was replaced with a stopper and a 1′×1.5″ Whatman filter paper soaked with 250 μl 2N NaOH. Each flask was injected with 2 ml of 6N HCL, placed in a horizontal position for 10 minutes and left standing overnight. The next morning, 1 ml H2O and 61 μl NaOH were added to a glass scintillation vial and the filter papers from each T25 flask were transferred to their respective vial. 10 ml Aquasol was added to each vial and allowed to stand for 2 hours, after which the vials were vortexed to dissolve the […] and counted in the scintillation counter. The results were expressed as nmols/h/106 cells and shown as the fold effect. ^14CO2 production ranged from 0.3 to 1.8 nmols/h/106 cells. The experiment was repeated three times.

HepG2 cells = test: Oxidation of 14C-palmitate in HepG2 cells; assay type: cell-based; details: resveratrol 10 μM in 1% DMSO, AICAR 500 μM in H2O, metformin 1 mM in H2O; 4 hours; vehicle = 1
Description: as §1, §2

[2] = system: Wild-type N2 C. elegans worms; test: Nile Red staining of fat accumulation in wild-type N2 C. elegans; assay type: in vivo; details: 100 μM; for fat mobilization (fat content of the worms): L1 worms, vehicle DMSO
[3] = system: Wild-type N2 C. elegans worms; test: as above; assay type: in vivo; details: 0, 1 or 10 mM, overnight
Description: Wild-type N2 C. elegans worms were grown on OP50 bacteria and exposed overnight to vehicle (0.1% ethanol) alone or with 10, 50 or 100 μM of resveratrol (in ethanol). Fat accumulation was visualized with Nile Red staining, as described further below and in Ashrafi K, et al. Nature 421:268-27 (2003).
Synchronized starved L1 worms were grown in the presence of Nile Red. Strains were grown on NGM plates at 25° C. for approximately 48 hours until the young adult stage was reached. 20-30 young adult worms were then washed 2× with M9 buffer and transferred to new NGM/Nile red experimental plates that contained either OP50 or HTT5 E. coli carrying the L4440 RNAi control vector. For experiments comparing the effect of nicotinamide and resveratrol on fat mobilization, OP50 plates were coated with vehicle alone or Nicotinamide (in PBS), or vehicle alone and Resveratrol (in Ethanol or DMSO).
Resveratrol (Indofine #024964) was dissolved in Ethanol or DMSO to a 10 mM stock solution. Resveratrol was added to 60 mm NGM agar dishes containing either OP50 or RNAi expressing bacteria (HT115) to a final concentration of 10 μm, 50 μm, and 100 μM. Nile Red was also added to plates to a final concentration of 0.05 μg/ml. Nicotinamide (Supelco #47865-U) was diluted in PBS including Nile Red and added to […] dishes containing OP50 to a final concentration of 1 mM, 10 mM, or 100 mM.
Nile Red: Nile Red Powder (Sigma #N-3013) was dissolved in acetone at 500 μg/ml, diluted in 1× Phosphate Buffered Saline (PBS) including appropriate drug and applied to surface of Nematode Growth Media (NGM) plates previously seeded with OP50 or RNAi bacteria, at a final concentration of 0.05 μg/ml. Fat content was monitored and recorded by fluorescence microscopy.
Nile Red Staining was visualized by using a Nikon TE2000S microscope equipped with a CY3 filter (emission 535-685 nm). Images were captured using a SPOT RT monochrome digital camera attached to the Nikon Microscope with SPOT RT software v3.5. All Nile red images were acquired using identical settings and exposure times and then changed to red palette.

[4] = system: TNF-alpha treated adipocytes; test: Radioactive glucose uptake in TNF-alpha treated, insulin resistant adipocytes; assay type: cell-based; details: resveratrol 5 μM or 15 μM; roziglitazone 4 μM (positive control); with TNF-alpha
Description: Adipocytes were treated with TNF-alpha to induce insulin resistance as described in Kabayama et al., Glycobiology 15:21-29 (2005) and Wu et al., Mol. Cell 3:151-8 (1999).

SMILES: NC(=O)c1ncn([C@@H]2O[C@H](CO)[C@@H](O)[C@H]2O)c1N [AICAR, 5-aminoimidazole-4-carboxamide-1-beta-D-ribofuranoside, reference compound]
- fat mobilization (C. elegans worms): inhibits AICAR-stimulated fat mobilization
- phosphorylation of AMPK (threonine 172) and ACC (serine 79) [1]: stimulates phosphorylation of AMPK and ACC
- 14C-CO2 production (Fold Effect) (H4IIEC3 cells): 2.3 Fold Effect
- 14C-CO2 production (Fold Effect) (HepG2 cells): 5 Fold Effect

SMILES: CSc1ccc(/C=C/c2cc(O)cc(O)c2)cc1 [3,5-dihydroxy-4′-thiomethyl-trans-stilbene]
- fat staining ([2]; 24 hours, control 1% v/v DMSO): Significant reduction of fat staining

SMILES: Oc1cc(O)cc(/C=C/c2ccc(O)c(O)c2)c1 [piceatannol, 3,5,3′,4′-Tetrahydroxy-trans-stilbene]
- fat mobilization (fat content of the worms) ([2]; 48 hours): stimulate fat mobilization

SMILES: O=c1c(O)c(-c2ccc(O)c(O)c2)oc2cc(O)cc(O)c12 [quercetin, 3,5,7,3′,4′-Pentahydroxyflavone]
- fat mobilization (fat content of the worms) ([2]; 48 hours): stimulate fat mobilization

SMILES: O=c1c(O)c(-c2ccc(O)c(O)c2)oc2cc(O)ccc12 [fisetin, 3,7,3′,4′-Tetrahydroxyflavone]
- fat mobilization (fat content of the worms) ([2]; 48 hours): stimulate fat mobilization

SMILES: NC(=O)c1cccnc1 [nicotinamide, reference compound]
- fat accumulation [3]: concentration dependent increase in fat accumulation

SMILES: CN(C)C(=N)N=C(N)N [Metformin]
- 14C-CO2 production (Fold Effect) (H4IIEC3 cells): 2 Fold Effect
- 14C-CO2 production (Fold Effect) (HepG2 cells): 3.5 Fold Effect

SMILES: CN(CCOc1ccc(CC2SC(=O)NC2=O)cc1)c1ccccn1 (centres unmarked) [roziglitazone, reference compound]
- radioactive glucose uptake / insulin sensitivity [4]: increases the uptake of radioactive glucose

SMILES: O=C(/C=C/c1ccc(O)c(O)c1)c1ccc(O)cc1O [butein, 3,4,2′,4′-Tetrahydroxychalcone]
- fat mobilization (fat content of the worms) ([2]; 48 hours): stimulate fat mobilization

SMILES: C(=C/c1ccccc1)/c1ccccc1 [cis-stilbene, cis-Stilbene]
- fat staining ([2]; L1 animals, 48 hours, control 2.5% v/v DMSO): No significant effect on worm fat staining
